Data on one molecule can be found in patent publication US9040687B2, “Process for the preparaton of novel porphyrin derivatives and their use as PDT agents and fluorescence probes” (COUNCIL OF SCIENTIFIC AND IDUSTRIAL RESEARCH, priority 2010, dated 2015).

Common to all, as to experiment: MTT assay, cytotoxicity by cellular proliferation
What all share (format): cell-based
In general terms: Tetrazolium dyes change colour on reduction, which living cells bring about.

One assay has as its system SCC 172. As to conditions: SCC172, cytotoxicity in the light.
The next assay has as its system Mia PaCa. The following applies: Homo sapiens, MIA PaCa-2, cytotoxicity in the light.
Assay [1] relates to oral cancer cells (SCC 131). The following applies: Homo sapiens, SCC131, cytotoxicity in the light. The method, then:
(§1) 3, (4,5-Dimethylthiazol-2-yl)-2,5-diphenyltetrazolium bromide (MTT) assay is a standard colorimetric assay for measuring cellular proliferation (cell growth). It was used to determine cytotoxicity of the porphyrin derivatives of the general formulae 1. Human cervical oral cancer cells (SCCl31 cells) (5×10^3 cells well^−1) were added to wells of two 96 well microtiter plate. One for dark cytotoxicity and another for light cytotoxicity with 150 μL DMEM (Dulbecco's Modified Eagle Medium) with 10% serum and incubated for 24 h. Then added 3.125 to 25 μM of porphyrin derivatives of the general formulae 1 in serial dilution (stock 100 mM diluted using DPBS (Dulbecco's Phosphate Buffered Saline) for test, 0.025% DMSO (dimethyl sulphoxide) for control and incubated for 3 h and irradiated in one plate using sodium vapor lamp (70 w for 15 min) while the other plate was kept in dark. After photoirradiation, DPBS was aspirated and 150 μL DMEM with 10% serum was added to each well and incubated is for 48 h. After 48 h of incubation, removed the plates from the incubator and added 10 µL of MIT (5 mg/ml stock) to each well of the plate. […] Read the absorbance at 570 nm. Percentage growth inhibition was calculated as % Growth inhibition=(control-test)/control)×100 […]

The test system of the next assay is MCF 7. The following applies: Homo sapiens, MCF7, cytotoxicity in the light.
The subject of another assay is HeLa. The following applies: Homo sapiens, cytotoxicity in the light.
Assay [2] concerns Breast cancer cells (MDA MB 231). As to conditions: Homo sapiens, cytotoxicity in the light. As for the experimental part:
[Worded in the source for another cell line; this cell line is reported under the same test.] as §1

Another assay deals with SiHa. As to conditions: Homo sapiens, cytotoxicity in the light.
The subject of the next assay is HCT 116. As to conditions: Homo sapiens, cytotoxicity in the light.
A further assay concerns HaCaT. The following applies: Homo sapiens, cytotoxicity in the light.

pIC50: −log10 of the molar value.

The term pIC50 denotes the IC50 on a negative log10 scale, so that one unit is a factor of ten. Read a high pIC50 as a small IC50.

`Oc1cccc(-c2c3nc(c(-c4cccc(O)c4)c4ccc([nH]4)c(-c4cccc(O)c4)c4nc(c(-c5cccc(O)c5)c5ccc2[nH]5)CC4)C=C3)c1` [FOSCAN, 5, 10, 15, 20-tetrakis (meta-hydroxyphenyl)-chlorin, reference compound]: the negative-log IC50 (pIC50) in the assay on SCC 172 is 4.90; in the assay with Mia PaCa, 4.96; in [1], 4.80; with MCF 7 it was 4.89; in the assay on HeLa it was 4.66; in assay [2], 4.87. The values for the pIC50 in the assay with SiHa, in the assay on HCT 116 and in the assay on HaCaT were 4.65, 5.05 and 5.10, respectively.
